# Assays:
# Type in all cases: cell-based
# [1] = system: methicillin resistant S. aureus (MRSA); assay: Raman marker peak height versus time in serum with MRSA (FIG. 6); conditions: representative traces 32 and 34, FIG. 6
# Text: As described above, if the iron sequestration process is monitored via Raman spectroscopy, then the test involves the collection of a series of Raman spectra over time. A hypothetical depiction of this collection for a non-iron marker is depicted in FIG. 5. The individual Raman spectra comprise one or more peaks such as […], and 23 that, in the case of iron sequestration, are ascribed either to Fe-Tr (21 and 22) or to the apo-Tr and/or serum lipoproteins (23). The peak heights from one of the Fe-Tr peaks (for instance, 22) are monitored over time, as depicted in FIG. 5. If viable pathogens are present, and are sequestering iron to afford Fe-Tr, then the iron-transferrin peaks decrease over time, as depicted by traces 33 and 34 in FIG. 6. On the other hand, if viable pathogens are not present, or if viable pathogens are present in the assay together with an effective antimicrobial agent, then the peak heights are nearly invariant with time.
# With reference to FIGS. 5 and 6, if the lycopene consumption is monitored via Raman spectroscopy as an indicator of metabolic activity, then the test involves the collection of a series of Raman spectra over time. A representative depiction of this collection is depicted in FIG. 5. […]
# [2] = system: HL60 human cells; assay: Toxin detection: lycopene Raman peak in human serum, trypticase soy broth and HL60 cells; conditions: 4 μM, FIG. 24, 25
# Text: FIG. 24 depicts the results of one toxin detection experiment. A control sample comprising human serum (centrifuged from the blood collected from a healthy volunteer) was combined with trypticase soy broth and HL60 human cells. […] FIG. 25 plots the normalized intensity for the 1516 cm^−1 peak as a function of time for the rhizoxin containing sample.
# [3] = system: S. aureus; assay: Lycopene Raman peak (1516 cm^-1) slope versus time in inoculated serum, MIC estimate; conditions: S. aureus 10^5 cfu/mL; vancomycin 1, 5 and 20 μg/mL; FIG. 17
# Method: FIGS. 17 & 18 illustrate the method by which a marker can be used to estimate the minimum inhibitory concentration MIC. FIG. 17 illustrates the Raman peak height at 1516 cm^−1 (which has been ascribed to lycopene) as a function of time for several samples. The samples include a serum sample that has been artificially inoculated with S. aureus to a concentration of 10^5 cfu/mL, and additional samples that also contain various concentrations of vancomycin (1, 5 and 20 μg/mL) as indicated in the legend.
# FIG. 18 plots the slope of all the traces in FIG. 17, as a function of added vancomycin concentration. The dashed horizontal line corresponds to the slope of the sample without any added vancomycin, and the 3 data points correspond to vancomycin concentrations of 1, 5 and 20 μg/mL. The solid black line is a logarithmic fit of the 3 data points, and the MIC corresponds to the point at which the solid black line intersects the dashed line.
SMILES,effectiveness of dose by peak height versus time trace [1],lycopene peak height (1516 cm^-1) over time [2],slope of lycopene 1516 cm^-1 peak intensity versus time [3]
CC1(C)S[C@@H]2[C@H](NC(=O)[C@H](N)c3ccccc3)C(=O)N2[C@H]1C(=O)O [ampicillin],ineffective dose,,
CO[C@@H](/C(C)=C/C=C/C(C)=C/c1coc(C)n1)[C@@H](C)[C@@H]1C[C@H](O)[C@@]2(C)O[C@@H]2/C=C/[C@@H](C)[C@H]2C[C@H](CC(=O)O2)C[C@@H]2O[C@H]2C(=O)O1 [rhizoxin],,"increases significantly at first, followed by a steady decline",
CN[C@H](CC(C)C)C(=O)N[C@H]1C(=O)N[C@@H](CC(N)=O)C(=O)N[C@H]2C(=O)N[C@H]3C(=O)N[C@H](C(=O)N[C@H](C(=O)O)c4cc(O)cc(O)c4-c4cc3ccc4O)[C@H](O)c3ccc(c(Cl)c3)Oc3cc2cc(c3O[C@@H]2O[C@H](CO)[C@@H](O)[C@H](O)[C@H]2O[C@H]2C[C@](C)(N)[C@H](O)[C@H](C)O2)Oc2ccc(cc2Cl)[C@H]1O [vancomycin],effective dose,,slope progressively decreases as more vancomycin is added
